# Target: gp120 (Human immunodeficiency virus type 1 group M subtype B, UniProt P04578)
# Experiment: competitive ELISA of gp120 binding
# Design: species or system HIV-1
# Details: as compared to previous double mutant (CD4M8)
# Description: In a second step, each putatively active side chain of the miniprotein was replaced by an Ala residue (“Ala scanning”).
structure (smiles),measurement,value
CC(C)C[C@@H]1NC(=O)CNC(=O)[C@H](CC(C)C)NC(=O)[C@H](CO)NC(=O)[C@H](CCCCN)NC(=O)[C@@H]2CSSC[C@@H](C(=O)NCC(=O)N3CCC[C@H]3C(=O)O)NC(=O)[C@H](C)NC(=O)[C@@H]3CSSC[C@H](NC(=O)[C@H](CCCNC(=N)N)NC(=O)[C@H](C)NC(=O)[C@H](CC(C)C)NC(=O)[C@H](CC(N)=O)NC(=O)[C@@H](N)CSSC[C@H](NC(=O)[C@H](CCCCN)NC(=O)CNC(=O)[C@H](CC(C)C)NC1=O)C(=O)N[C@@H](C)C(=O)NCC(=O)N[C@@H](CO)C(=O)N[C@@H](Cc1ccccc1)C(=O)N3)C(=O)N[C@@H](CCC(N)=O)C(=O)N[C@@H](CC(C)C)C(=O)N[C@@H](CCCNC(=N)N)C(=O)N2 [CD4M9],further increase of binding affinity,ten-fold

# Source: patent US8470334B2, “Method of inducing an antiviral immune response against HIV-1 utilizing chimeric HIV Env proteins comprising CD4 mini-proteins or CD4 mimetics” (Novartis Vaccines & Diagnostics, Inc, priority 2002, dated 2013)
